Entries after “also recorded” stand apart in the source; their conditions may differ. Structures can show the parent of a compound that is named as a salt. Where two headings read alike, the source gives them in different places.
Legend:
mouse iBMDMs [1] = test: Processing of caspase-1, GSDMD and IL-1β in iBMDMs (immunoblot); assay type: cell-based; conditions: 1 hr time point
Experimental: (§1) FIG. 97 contains a bar graph showing results of an experiment where LPS-primed THP-1 cells, after medium removal, were incubated with probe FAM-YVAD-FMK in FLICA assay buffer for another 0.5 hr before fluorescence reading. iBMDMs were pretreated with disulfiram, Bay 11-7082, necrosulfonamide (NSA) or z-VAD-fmk for 1 hr before treated or not with Nigericin for 0.5 hr. Whole cell lysates and culture supernatants were immunoblotted with the indicated antibodies.
as §1, with “FIG. 98” for “FIG. 97”, “for 1” for “for 0.5”
Canonical inflammasome assembly activates caspase-1, which cleaves pro-IL-1β and GSDMD, and the latter is needed to release processed IL-1β and to induce pyroptosis. To assess which steps in NLRP3-mediated inflammation were inhibited post ASC speck formation, LPS-primed THP-1 cells were treated with vehicle, 30 μM z-VAD-fmk or disulfiram 1 hour before adding nigericin, and cleavage and activation of caspase-1, GSDMD, and pro-IL-1β were analysed by immunoblot of whole cell lysates 30 min later and 1 hr later. Secretion of processed IL-1β was also assessed by immunoblot of culture supernatants. […] The 1 hr time point is relevant as the cell death and IL-1β release measurements used cells stimulated with nigericin for 1 and 2 hrs, respectively.

HT-29 cells = test: Necroptosis induced by TNFα, SMAC mimetic and z-VAD-fmk; assay type: cell-based; conditions: SMAC mimetic
Text: Inhibition was shown by cell survival, assessed by CellTiter-Glo ATP luminescence, and membrane permeabilization, assessed by uptake of the membrane-impermeable dye SYTOX Green.

Human GSDMD = biological target: T1, Human GSDMD (Homo sapiens, UniProt P57764); test: Liposome leakage assay (Tb3+/DPA), GSDMD plus caspase-11; assay type: biochemical
T1 construct: His6-MBP (N, cleaved yes); made in house; host or cells: E. coli BL21 (DE3) for GSDMD; Sf9 for caspase-11
T1 sequence (P57764 1-484): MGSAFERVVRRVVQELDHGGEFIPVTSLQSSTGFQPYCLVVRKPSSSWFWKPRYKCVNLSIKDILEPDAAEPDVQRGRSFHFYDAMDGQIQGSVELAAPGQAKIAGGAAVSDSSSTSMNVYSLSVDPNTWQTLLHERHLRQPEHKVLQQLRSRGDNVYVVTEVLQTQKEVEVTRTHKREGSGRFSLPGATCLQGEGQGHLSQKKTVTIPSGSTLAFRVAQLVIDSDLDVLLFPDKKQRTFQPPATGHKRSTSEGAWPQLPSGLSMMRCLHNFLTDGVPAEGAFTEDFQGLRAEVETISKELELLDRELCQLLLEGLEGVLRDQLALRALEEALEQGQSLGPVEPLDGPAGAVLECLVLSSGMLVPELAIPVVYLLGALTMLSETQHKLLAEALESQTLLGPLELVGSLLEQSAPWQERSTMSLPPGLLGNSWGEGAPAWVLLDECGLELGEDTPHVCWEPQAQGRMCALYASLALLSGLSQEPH
Experimental: The lipid mixture was suspended in 1 mL Buffer A (20 mM HEPES, 150 mM NaCl, 50 mM sodium citrate, and 15 mM TbCl3) for 3 min. The suspension was pushed through 100 nm Whatman® Nuclepore™ Track-Etched Membrane 30 times to obtain homogeneous liposomes. The filtered suspension was purified by size exclusion column (Superose 6, 10/300 GL) in Buffer B (20 mM HEPES, 150 mM NaCl) to remove TbCl3 outside liposomes. […] The liposomes are diluted to 50 μM with Buffer C (20 mM HEPES, 150 mM NaCl and 50 μM DPA) for use in high-throughput screening.

THP-1 cells = test: Canonical inflammasome pyroptosis, LPS-primed THP-1 cells plus nigericin; assay type: cell-based, human; conditions: for inhibition of canonical inflammasome pyroptosis: THP-1, nigericin
Experimental: Cell viability assay. […] Primed THP-1 cells were pretreated with each test compound for 1 hr before addition of 20 μM nigericin or medium as control. The number of surviving cells was determined by CellTiter-Glo assay 1.5 hrs later. The final percent cell viability was calculated using the formula [(luminescencetest compound−luminescencencenegative control)/(luminescencencepositive control−luminescencenegative control)]×100, where wells with only LPS were used as positive controls and wells treated with LPS and nigericin were used as negative controls.
In FIGS. 4, 6, and 8, PMA-differentiated LPS-primed human THP-1 were pre-treated with indicated concentrations of each compound for 1 h before adding nigericin or medium. The number of surviving cells was determined by CellTiter-Glo assay (FIGS. 4 and 6) and IL-1β in culture supernatants was assessed by ELISA (FIG. 8) 2 hrs later. […] In FIGS. 8 and 9, 40 μM concentration of test compounds were added. […] Graphs show the mean±s.d. and data shown are representative of three independent experiments. **P<0.01.

mouse iBMDMs [2] = test: Non-canonical inflammasome pyroptosis, iBMDMs with LPS electroporation; assay type: cell-based
Experimental: Cell lines and treatments: THP-1 cells and HEK293T cells (obtained from ATCC) were grown in RPMI with 10% heat-inactivated fetal bovine serum, supplemented with 100 U/ml penicillin G, 100 μg/ml streptomycin sulfate, 6 mM HEPES, 1.6 mM L-glutamine, and 50 μM 2ME. C57BL/6 mouse iBMDM cells were kindly provided by J. Kagan (Boston Children's Hospital) and cultured in DMEM with the same supplements. Cells were verified to be free of mycoplasma contamination. Transient transfection of HEK293T cells was performed using Lipofectamine 2000 (Invitrogen) according to the manufacturer's instructions. iBMDM cells were transfected by nucleofection using the Amaxa Nucleofector kit (VPA-1009). […] To examine IκBα. phosphorylation and degradation as well as IL-1β induction, PMA-differentiated THP-1 cells were stimulated with LPS (1 μg/ml) for 0.5, 1 and 4 hrs, respectively. For noncanoical inflammasome activation, 1 million iBMDM cells were electroporated with 1 μg ultra LPS.
Cytotoxicity and cell viability assays: cell death and cell viability were determined by the lactate dehydrogenase release assay using the CytoTox 96 Non-Radioactive Cytotoxicity Assay kit (Promega) and by measuring ATP levels using the CellTiter-Glo Luminescent Cell Viability Assay (Promega), respectively, according to the manufacturer's instructions. Luminescence and absorbance were measured on a BioTek Synergy 2 plate reader.
In FIGS. 4, 6, and 8, PMA-differentiated LPS-primed human THP-1 were pre-treated with indicated concentrations of each compound for 1 h before adding nigericin or medium. The number of surviving cells was determined by CellTiter-Glo assay (FIGS. 4 and 6) and IL-1β in culture supernatants was assessed by ELISA (FIG. 8) 2 hrs later. In FIGS. 5, 7, and 9, mouse iBMDMs were pre-treated with each test compound for 1 hr before electroporation with PBS or LPS. The number of surviving cells was determined by CellTiter-Glo assay (FIGS. 5 and 7) and IL-1β in culture supernatants was assessed by ELISA (FIG. 9) 2.5 hrs later. In FIGS. 8 and 9, 40 μM concentration of test compounds were added.

[3] = Table 2, leakage assay, read-out: IC50

COc1nccnc1NS(=O)(=O)c1ccc(NC(=O)/C=C/c2ccc([N+](=O)[O-])s2)cc1 [necrosulfonamide]
processing of caspase-1, GSDMD and IL-1β (mouse iBMDMs [1]): still inhibited processing
necroptosis (HT-29 cells): blocked
times less active than disulfiram at inhibiting liposome leakage (Human GSDMD; GSDMD plus caspase-11): about 30 fold
IC50 (Human GSDMD; WT GSDMD, caspase-11-triggered, read-out: IC50 of liposome leakage): 9.5 ± 0.43 µM

S=C(SSC(=S)N1CCCCC1)N1CCCCC1 [C-23A9, dicyclopentamethylenethiuram disulfide]
IC50 (Human GSDMD; [3]): 0.26 ± 0.003 µM

S=C(SSC(=S)N1CCCC1)N1CCCC1 [C-23A10, pyrrolidine-1-carbothioic dithioperoxyanhydride]
IC50 (Human GSDMD; [3]): 0.26 ± 0.02 µM

CN1CCN(C(=S)SSC(=S)N2CCN(C)CC2)CC1 [C-23A4, 4-Methylpiperazine-1-carbothioic dithioperoxyanhydride]
IC50 (Human GSDMD; [3]): 0.26 ± 0.01 µM

CN(C(=S)SSC(=S)N(C)c1ccncc1)c1ccncc1 [C-23A8, N,N′-Dimethyl-N,N′-di(4-pyridinyl)thiuram disulfide]
IC50 (Human GSDMD; [3]): 1.25 ± 0.01 µM

Cc1ccc(N(C)C(=S)SSC(=S)N(C)c2ccc(C)cc2)cc1 [C-23A6, N,N′-Dimethyl-N,N′-(4,4′-dimethyldiphenyl)thiuram disulfide]
IC50 (Human GSDMD; [3]): 0.35 ± 0.03 µM

S=C(SSC(=S)N1CCOCC1)N1CCOCC1 [C-23A7, di(4-morpholinyl)dithioperoxyanhydride]
IC50 (Human GSDMD; [3]): 0.25 ± 0.01 µM

Cc1c(-c2cnccn2)ssc1=S [C-24]
inhibition of canonical inflammasome pyroptosis (THP-1 cells): Only C-23 blocked pyroptosis
inhibition of non-canonical inflammasome pyroptosis (mouse iBMDMs [2]): Only C-23 blocked pyroptosis

COc1ccc(-c2cc(=S)ss2)cc1 [C-22]
inhibition of canonical inflammasome pyroptosis (THP-1 cells): Only C-23 blocked pyroptosis
inhibition of non-canonical inflammasome pyroptosis (mouse iBMDMs [2]): Only C-23 blocked pyroptosis

CCN(CC)C(=S)S [DTC, diethyldithiocarbamate]
activity in cells in the presence of Cu2+ (THP-1 cells; with Cu2+): almost as active as C-23; also recorded: almost as active as disulfiram
effect of Cu2+ on protection of LPS-primed THP-1 cells from pyroptosis (THP-1 cells; with Cu2+): strongly promoted
effect of copper gluconate (Cu2+) on inhibition of liposome leakage (Human GSDMD; with Cu2+): only weakly increased

COC(=O)/C=C/C(=O)OC [DMF, dimethyl fumarate]
activity against GSDMD (Human GSDMD; Cys-reactive comparison compounds): lack of activity

CN(C)C(=S)SSC(=S)N(C)C [C-23A1, tetramethylthiuram disulfide]
IC50 (Human GSDMD; [3]): 0.22 ± 0.01 µM

CC(C)N(C(=S)SSC(=S)N(C(C)C)C(C)C)C(C)C [C-23A2, Tetraisopropylthiuram disulfide]
IC50 (Human GSDMD; [3]): 0.37 ± 0.01 µM

CN(C(=S)SSC(=S)N(C)c1ccccc1)c1ccccc1 [C-23A11, dimethyldiphenylthiuram disulfide]
IC50 (Human GSDMD; [3]): 0.37 ± 0.01 µM

CN1C(=O)C(Cc2c[nH]c3ccccc23)NC1=S (stereo not shown) [necrostatin-1]
necroptosis (HT-29 cells): blocked

S=C(SSC(=S)N(Cc1ccccc1)Cc1ccccc1)N(Cc1ccccc1)Cc1ccccc1 [C-23A12, Tetrabenzylthiuram disulfide]
IC50 (Human GSDMD; [3]): 2.93 ± 1.07 µM

CCCCN(CCCC)C(=S)SSC(=S)N(CCCC)CCCC [C-23A3, tetrabutylthiuram disulfide]
IC50 (Human GSDMD; [3]): 0.46 ± 0.08 µM

S=C(SSC(=S)N(c1ccccc1)c1ccccc1)N(c1ccccc1)c1ccccc1 [C-23A5, Tetraphenylthiuram disulfide]
IC50 (Human GSDMD; [3]): 3.74 ± 1.06 µM
